This note sets out measurements from PMC8892522 (Proceedings of the National Academy of Sciences of the …, 2022).

Test [1] deals with T1, soluble epoxide hydrolase (sEH) (Mus musculus, UniProt P34914).
T1 sequence (P34914 1-554): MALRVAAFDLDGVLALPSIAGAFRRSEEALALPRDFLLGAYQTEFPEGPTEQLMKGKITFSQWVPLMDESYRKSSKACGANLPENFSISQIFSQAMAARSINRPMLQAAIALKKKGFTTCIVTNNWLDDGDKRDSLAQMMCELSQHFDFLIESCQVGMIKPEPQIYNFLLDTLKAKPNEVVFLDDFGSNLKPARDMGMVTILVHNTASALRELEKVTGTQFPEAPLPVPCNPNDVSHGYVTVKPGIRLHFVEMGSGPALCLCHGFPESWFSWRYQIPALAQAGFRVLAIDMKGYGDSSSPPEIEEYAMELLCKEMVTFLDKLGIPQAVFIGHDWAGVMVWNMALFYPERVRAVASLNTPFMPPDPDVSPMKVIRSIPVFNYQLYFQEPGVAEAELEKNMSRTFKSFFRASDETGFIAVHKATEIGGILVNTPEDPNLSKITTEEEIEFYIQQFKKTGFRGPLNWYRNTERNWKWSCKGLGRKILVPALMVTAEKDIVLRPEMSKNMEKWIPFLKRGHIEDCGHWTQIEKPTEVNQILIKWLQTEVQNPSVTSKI
Briefly: fluorescent substrate. In kind it is biochemical.

The target in test [2] is T2, soluble epoxide hydrolase (sEH) (Homo sapiens, UniProt P34913).
T2 sequence (P34913 230-555): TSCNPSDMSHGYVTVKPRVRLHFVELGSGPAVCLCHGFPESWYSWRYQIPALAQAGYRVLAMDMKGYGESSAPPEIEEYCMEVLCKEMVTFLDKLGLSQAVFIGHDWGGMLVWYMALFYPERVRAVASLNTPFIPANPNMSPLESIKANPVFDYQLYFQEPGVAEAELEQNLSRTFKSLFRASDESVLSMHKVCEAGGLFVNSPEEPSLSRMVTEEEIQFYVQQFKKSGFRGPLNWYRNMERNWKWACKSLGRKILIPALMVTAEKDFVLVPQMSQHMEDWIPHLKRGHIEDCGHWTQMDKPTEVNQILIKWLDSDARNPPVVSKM
Briefly: cocrystal structure. The format is binding.

Regarding `C=C(C)[C@H](CC=C(C)C)Cc1c(O)cc(OC)c2c1O[C@H](c1ccc(O)cc1O)CC2=O` [kurarinone], the IC50 in test [1] was determined as 420 nM. For the same molecule, binding in test [2] was put at a Kd of 1450 nM.
